Broadly, the pKa is the negative logarithm of the acid dissociation constant.

In paper PMC10120574 (Biochemistry, 2022) one finds Km and pKa data, which are given here for 2 molecules.

In one data set the test system is 437. The data set is described as follows: UV ketonization assay, decay of enol at […] nm. The format is biochemical, Calothrix sp. PCC 6303. As to conditions: read-out: 437 / Km; 10 mM Na2HPO4, pH 8.3, 22 °C; 5-75 μM substrate.
The next data set has as its target Nterm1 (UniProt position 2, ----MPLLKFD). The data set is described as follows: NMR. As to conditions: not stated (presumably free enzyme); cited from earlier work.

`O=C(O)C=CC=C(O)C(=O)O` [2-HM, 2-Hydroxymuconate]: the Km with 437 turned out to be 34 ± 12 µM.

On to “Malonate semialdehyde decarboxylase (Pp MSAD) (Pseudomonas pavonaceae 170)”, for which, in the data set with Nterm1, the pKa is reported as approximately 9.2.
